Laboratory results published in US20130172294A1, “Treatment with VB-201” (Vascular Biogenics Ltd., priority 2010, published 2013).
“Also recorded” adds a separate entry of the source. Where two headings read alike, the source gives them in different places.

Columns and labels:
[1] = Safety and tolerability of single dose (Example 1); assay type: in vivo, human; settings: single oral dose 1-50 mg
From the text: Safety and tolerability of VB-201 was judged by evaluating the incidence of abnormal findings in the following measurements: vital signs: systolic and diastolic blood pressure, heart rate, respiratory rate, body temperature; physical examination; 12-lead electrocardiogram; laboratory tests of blood samples for: complete blood count, prothrombin time/partial thromboplastin time, LDL- and HDL-cholesterol, total cholesterol, triglycerides, glucose, blood urea nitrogen, sodium, potassium, creatinine, calcium, phosphorus, creatinine phosphokinase, lactate dehydrogenase, aspartate transaminase, alanine transaminase, γ-glutamyl transferase, alkaline phosphatase, protein, albumin, total bilirubin, total IgM and IgG antibodies, interleukin-12/23 p40, tumor necrosis factor-α, and interleukin-6, as well as routine urinalysis; and all adverse events, whether or not considered serious, and whether or not considered related to the investigational agent, according to the criteria for Good Clinical Practice. Treatment-emergent adverse events were defined as any adverse event that started on or after administration of the first dose of VB-201, and no more than 30 days after administration of the last dose, or are ongoing at the time of the first dose and worsened in severity or frequency during treatment. […] All subjects were healthy male volunteers. Five cohorts of six subjects each received a single dose of 1, 3, 10, 30 or 50 mg VB-201. 10 subjects received a placebo. The VB-201 was formulated in gelatin capsules enterocoated with Eudragit®.

[2] = Repeated daily dose pharmacokinetics, 40 and 80 mg (Example 4); assay type: in vivo, human
Experimental: Determination of VB-201 concentrations in plasma was performed using an HPLC-MS/MS (high performance liquid chromatography with tandem mass spectrometric detection) assay. Calibration was for a range of from 5 to 500 ng/ml for low doses and from 50 to 5000 ng/ml for high doses. Pharmacokinetic parameters were estimated by using a non-compartmental method, except for the AUC (area under curve), which was determined using a (log-) trapezoidal rule as the area above the previous trough level. […] The subjects were all healthy volunteers. […] 6 subjects received a placebo. The VB-201 was formulated in non-enterocoated capsules. Blood was collected for pharmacokinetic evaluation on day 1 (40 mg cohort) and on day 14 (40 and 80 mg cohorts).

[3] = tested on: C-reactive protein (CRP)
Experimental: C-reactive protein (CRP) levels in plasma samples were measured using a CRP Latex assay kit (Olympus) and an AU400® immuno-analyzer (Olympus).
A randomized, double-blind, placebo-controlled study was performed to in order to investigate the safety, tolerability and pharmacokinetics of VB-201 at a repeated, daily dose taken orally. The subjects were all healthy volunteers. Cohorts of six subjects each received a daily dose of 40 or 80 mg VB-201 in the morning, following at least 10 hours of fasting, for 14 days. 6 subjects received a placebo. The VB-201 was formulated in non-enterocoated capsules.
Further studies were performed on an additional cohort, which included six subjects receiving a daily dose of 80 mg VB-201, as described hereinabove, for 28 days. An additional two subjects received a placebo.
Plasma samples obtained on day 0 (pre-dosing) and on day 14 from the subjects in each cohort (40 mg for 14 days, 80 mg for 14 days, and 80 mg for 28 days), and on day 28 from the subjects of the cohort receiving 80 mg VB-201 for 28 days, were assayed for C-reactive protein (CRP) by the high sensitivity CRP assay described hereinabove.

[4] = Safety and tolerability of repeated doses 40 and 80 mg (Example 4); assay type: in vivo, human
From the text: Safety and tolerability of VB-201 was judged by evaluating the incidence of abnormal findings in the following measurements: vital signs: systolic and diastolic blood pressure, heart rate, respiratory rate, body temperature; physical examination; 12-lead electrocardiogram; laboratory tests of blood samples for: complete blood count, prothrombin time/partial thromboplastin time, LDL- and HDL-cholesterol, total cholesterol, triglycerides, glucose, blood urea nitrogen, sodium, potassium, creatinine, calcium, phosphorus, creatinine phosphokinase, lactate dehydrogenase, aspartate transaminase, alanine transaminase, γ-glutamyl transferase, alkaline phosphatase, protein, albumin, total bilirubin, total IgM and IgG antibodies, interleukin-12/23 p40, tumor necrosis factor-α, and interleukin-6, as well as routine urinalysis; and all adverse events, whether or not considered serious, and whether or not considered related to the investigational agent, according to the criteria for Good Clinical Practice. Treatment-emergent adverse events were defined as any adverse event that started on or after administration of the first dose of VB-201, and no more than 30 days after administration of the last dose, or are ongoing at the time of the first dose and worsened in severity or frequency during treatment. […] The subjects were all healthy volunteers. […] 6 subjects received a placebo. […]

[5] = tested on: interferon-γ (IFN-γ)
Experimental: Plasma levels of interleukin-23 (IL-23) and interferon-γ (IFN-γ) were determined using the FlowCytomix human simplex kits (Bender Medsystems) for the aforementioned cytokines according to the manufacturer instructions. Acquisition of samples was performed using FacsCalibur (Becton Dickinson). Results were analyzed with the FlowCytomix Pro 2.2 Software.
Healthy subjects were treated once a day with 40 mg or 80 mg of VB-201, according to the procedures described in Example 4. Plasma was collected on day 0 (pre-dosing), on day 14 after dosing, and on day 28 after dosing (when administration lasted 28 days). Plasma levels of interleukin-23 (IL-23) and interferon-γ (IFN-γ) were determined as described hereinabove.

[6] = tested on: collagen-induced arthritis; settings: in vivo animal model; cited from earlier work

- AUC(0-infinity) ([2]; daily 40 mg, Day 1): 31952 ± 9680 ng·h/mL
- Cl/F (0-24) ([2]; daily 40 mg, Day 1): 2.837 ± 1.064 L/h
- Cl/F(0-infinity) ([2]; daily 40 mg, Day 1): 1.346 ± 0.401 L/h
- Cmax ([2]; daily 40 mg, Day 1): 923.7 ± 287.4 ng/mL
- Ke ([2]; daily 40 mg, Day 1): 0.0305 ± 0.0124 h⁻¹
- MTT (0-24) ([2]; daily 40 mg, Day 1): 12.0 ± 0.5 h
- MTT(0-infinity) ([2]; daily 40 mg, Day 1): 41.3 ± 17.6 h
- T1/2 ([2]; daily 40 mg, Day 1): 26.8 ± 13.0 h
- Tmax ([2]; daily 40 mg, Day 1): 8.7 ± 3.8 h
- AUC(0-24) ([2]; daily 40 mg, Day 14): 47393 ± 16792 ng·h/mL
- AUC(0-infinity) ([2]; daily 40 mg, Day 14): 117013 ± 55816 ng·h/mL
- Cl/F (0-24) ([2]; daily 40 mg, Day 14): 0.970 ± 0.436 L/h
- Cl/F(0-infinity) ([2]; daily 40 mg, Day 14): 0.405 ± 0.172 L/h
- Cmax ([2]; daily 40 mg, Day 14): 2544.6 ± 800.5 ng/mL
- Ke ([2]; daily 40 mg, Day 14): 0.0270 ± 0.0111 h⁻¹
- MTT (0-24) ([2]; daily 40 mg, Day 14): 11.1 ± 0.4 h
- MTT(0-infinity) ([2]; daily 40 mg, Day 14): 45.2 ± 18.8 h
- T1/2 ([2]; daily 40 mg, Day 14): 30.2 ± 13.6 h
- Tmax ([2]; daily 40 mg, Day 14): 4.2 ± 2.0 h
- AUC(0-24) ([2]; daily 80 mg, Day 14): 89779 ± 21751 ng·h/mL
- AUC(0-infinity) ([2]; daily 80 mg, Day 14): 206918 ± 62474 ng·h/mL
- Cl/F (0-24) ([2]; daily 80 mg, Day 14): 0.941 ± 0.247 L/h
- Cl/F(0-infinity) ([2]; daily 80 mg, Day 14): 0.422 ± 0.144 L/h
- Cmax ([2]; daily 80 mg, Day 14): 4820.2 ± 930.3 ng/mL
- Ke ([2]; daily 80 mg, Day 14): 0.0251 ± 0.0048 h⁻¹
- MTT (0-24) ([2]; daily 80 mg, Day 14): 11.0 ± 0.4 h
- MTT(0-infinity) ([2]; daily 80 mg, Day 14): 41.5 ± 7.8 h
- T1/2 ([2]; daily 80 mg, Day 14): 28.5 ± 5.8 h
- Tmax ([2]; daily 80 mg, Day 14): 6.0 ± 1.1 h
Compound: CCCCCCCCCCCCCCCCOCC(COP(=O)([O-])OCC[N+](C)(C)C)OCCCCC(=O)O (stereo not shown) [VB-201, 1-hexadecyl-2-(4′-carboxybutyl)-glycerol-3-phosphocholine]
- electrocardiogram findings [1]: None of the subjects which received VB-201 had clinically significant electrocardiogram findings
- safety profile [1]: comparable safety profile of VB-201 to a placebo
- serious adverse events [1]: No serious adverse events occurred
- reduction of plasma CRP levels ([3]; 40 mg per day for 14 days): 49%
- reduction of plasma CRP levels ([3]; 80 mg per day for 14 days): 43%
- reduction of plasma CRP levels ([3]; 80 mg per day for 28 days): 45%
- serious adverse events ([4]; daily 40 or 80 mg, 14 or 28 day cohorts): No serious adverse events were reported
- safety and tolerability ([4]; daily doses of up to 80 mg for up to 28 days): both safe and well-tolerated; also recorded: well-tolerated by subjects, and no substantial toxicity was observed
- IFN-γ plasma levels ([5]; 40 mg per day, 14 days, one subject (second had no detectable levels)): considerably reduced
- IFN-γ plasma levels ([5]; 80 mg per day, 28 days, two subjects (third had no detectable levels)): considerably reduced
- efficacy in collagen-induced arthritis [6]: effective
